Source: article PMC10287695, “Non-covalent inhibitors of thioredoxin glutathione reductase with schistosomicidal activity in vivo” (Nature Communications, 2023)
Values joined by “and” are separate entries in the source; they are usually repeats but may differ in a detail not shown here. Identical values can stand only once.

Experiments:
BmTrxR = BmTrxR (Brugia malayi, UniProt A0A1I9G0T9); experiment: B. malayi TrxR enzyme inhibition; type: biochemical; settings: for inhibition at 10 µM / inhibition at 25 µM / inhibition at 50 µM: BmTrxR, mean of 3 replicates, read-out: % inhibition; for inhibition at 10 µM: 10 µM compound; for inhibition at 25 µM: 25 µM compound; for inhibition at 50 µM: 50 µM compound
BmTrxR, sequence (A0A1I9G0T9 entry or part of it, added parts left off): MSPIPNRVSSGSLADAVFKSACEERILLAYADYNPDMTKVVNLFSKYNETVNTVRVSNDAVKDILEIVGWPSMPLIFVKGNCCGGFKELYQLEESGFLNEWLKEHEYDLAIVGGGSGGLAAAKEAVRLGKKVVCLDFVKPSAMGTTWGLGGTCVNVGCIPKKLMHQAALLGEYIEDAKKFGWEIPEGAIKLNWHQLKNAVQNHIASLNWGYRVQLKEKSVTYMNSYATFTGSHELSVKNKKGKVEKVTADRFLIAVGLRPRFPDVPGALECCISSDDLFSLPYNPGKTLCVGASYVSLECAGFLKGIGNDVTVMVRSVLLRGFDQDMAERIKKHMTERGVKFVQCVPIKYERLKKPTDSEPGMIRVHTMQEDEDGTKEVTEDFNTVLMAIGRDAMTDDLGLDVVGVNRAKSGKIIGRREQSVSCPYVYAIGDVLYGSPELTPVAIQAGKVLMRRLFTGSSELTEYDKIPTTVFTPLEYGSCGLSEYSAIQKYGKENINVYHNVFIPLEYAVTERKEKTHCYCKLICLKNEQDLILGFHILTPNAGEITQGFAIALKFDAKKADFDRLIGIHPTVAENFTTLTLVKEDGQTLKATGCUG
How it was run: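 Recombinant, purified BmTrxR in a DTNB reduction assay: reaction started with an equal volume of DTNB (6 mM) and NADPH (100 µM), and the A412 increase over the first 3 min recorded. Run in triplicate; IC50 from curve fitting.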

[1] = test system: S. mansoni juvenile worms (21 days); experiment: Schistosomicidal activity ex vivo, juvenile worms (21 days); type: cell-based; settings: for viability at 5 µM / viability at 15 µM / viability at 30 µM: Schistosoma mansoni, 23 day S. mansoni worms, 48 HR; for viability at 5 µM: Conc. 5 µM; for viability at 15 µM: Conc. 15 µM; for viability at 30 µM: Conc. 30 µM; for LD50 ex vivo S. mansoni 21 days: juvenile worms, 48 h exposure
Description: (§1) Three-week old, female Swiss-Webster mice obtained from the Charles River were housed in the Comparative Research Center of Rush University Medical Center. Mice were infected by percutaneous tail exposure to about 200 S. mansoni or 50 S. japonicum cercaria for adult worms and about 1000 cercaria for juvenile S. mansoni worms through natural transdermal penetration of the cercariae for 1 h[81].
(§2) DMSO formulated compounds were diluted with phenol red free M199 medium or RPMI medium for NTS or juvenile and adult worms, respectively, at <1% DMSO final concentrations. NTS, juvenile and adult worms from overnight cultures were tested against compounds in triplicate. Controls were treated with DMSO alone or 5 µM AF as a positive control in appropriate medium. […] Schistosome viabilities in the presence of the compounds were assessed using this formula: % Viability = Averages of Test / Averages of DMSO Control x 100.

TGR [2] = target: T1, TGR (Schistosoma mansoni, UniProt Q962Y6); experiment: Reversibility by jump dilution; type: biochemical; settings: for Inhibitor (rate), 0 min / % Activity, 0 min: [0, D0]: 15 min preincubation inhibitor + TGR + NADPH, diluted 1:100, then activity determined immediately; for Inhibitor (rate), 0 min / Inhibitor (rate), 60 min / Inhibitor (rate), -15: raw rate; for % Activity, 0 min / % Activity, 60 min / % Activity, -15: relative to DMSO; for Inhibitor (rate), 60 min / % Activity, 60 min: [60, D60]: 15 min preincubation inhibitor + TGR + NADPH, diluted 1:100, then activity determined after 60 min; for Inhibitor (rate), -15 / % Activity, -15: [-15]: 15 min preincubation inhibitor + TGR + NADPH, then activity determined, replicates; for % Activity (ID list) / % Inhibition (ID list): before dilution (-15)
T1 construct: made in house
T1 sequence (Q962Y6 1-598): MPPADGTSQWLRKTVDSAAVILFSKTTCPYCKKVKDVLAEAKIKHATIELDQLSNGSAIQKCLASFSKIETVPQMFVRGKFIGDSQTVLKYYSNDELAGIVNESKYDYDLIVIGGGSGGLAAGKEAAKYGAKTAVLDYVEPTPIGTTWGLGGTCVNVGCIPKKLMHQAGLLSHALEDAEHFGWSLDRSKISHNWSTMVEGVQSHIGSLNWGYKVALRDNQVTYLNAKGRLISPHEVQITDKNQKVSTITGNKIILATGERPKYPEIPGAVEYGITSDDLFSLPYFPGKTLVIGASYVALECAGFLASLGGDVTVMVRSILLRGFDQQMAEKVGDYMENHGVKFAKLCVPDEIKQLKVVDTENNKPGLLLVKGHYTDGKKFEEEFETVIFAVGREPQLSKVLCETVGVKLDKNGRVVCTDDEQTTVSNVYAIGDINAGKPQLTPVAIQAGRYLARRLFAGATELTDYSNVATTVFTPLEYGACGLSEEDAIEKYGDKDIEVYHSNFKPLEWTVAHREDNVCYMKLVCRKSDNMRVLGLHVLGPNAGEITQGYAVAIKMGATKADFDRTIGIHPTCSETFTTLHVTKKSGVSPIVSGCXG
Description: A reaction of 370 nM TGR, 100 µM NADPH, and 250 µM inhibitor was incubated for 15 min at room temperature. A 100x dilution of the reaction was made and the activity was determined immediately and after 60 min.

TGR [3] = target: T1, TGR; experiment: Time dependence of inhibition; type: biochemical; parameters: avg % inhib, 0.5 hr / avg % inhib, 1 hr / avg % inhib, 2 hr / avg % inhib, 3 hr / avg % inhib, 6 hr / avg % inhib, 24 hr: tested at 50 µM; settings: panel d Time Dependence; for avg % inhib, 0.5 hr / avg % inhib, 1 hr / avg % inhib, 2 hr / avg % inhib, 3 hr / avg % inhib, 6 hr / avg % inhib, 24 hr: average; for % inhib, 0.5 hr / % inhib, 1 hr / % inhib, 2 hr / % inhib, 3 hr / % inhib, 6 hr / % inhib, 24 hr: replicates
Description: TGR was incubated at room temperature (up to 6 h) and at 4 °C for 6 to 24 h with 50 µM inhibitor and 100 µM NADPH for the indicated times. Then DTNB (3 mM) and NADPH (100 µM) were added, and the reaction was monitored at A412 for 5 min. The assay was done in triplicate.

TGR [4] = target: T1, TGR; experiment: Thermal shift assay (TSA); type: binding; parameters: key to Avg. Tm / Tm, replicate 1-3: Tm in °C, from a 25–95 °C melt curve
Description: Samples were prepared by using a final concentration of 0.25 mg/ml TGR diluted in TGR reaction buffer to the desired volume. To evaluate reduced TGR, 500 µM NADPH was added. […] After the preincubation period, 20 µL samples were pipetted into a BioRad un-skirted PCR 96 well plate and sealed with MicroAmp^TM Optical Adhesive film. The plate was then centrifuged for 5 min at 1000 × g. TSA was carried out using a BioRad CFX Connect qPCR instrument with a melt curve setting of 25 − 95 °C, in increments of 0.5 °C/10 seconds. The SYBR green channel was used to detect fluorescence as the wavelength of flavin fluorescence overlaps with that of SYBR green. BioRad CFX Maestro 5.2 was used to analyze TSA data.

S. japonicum adult worms = experiment: Schistosomicidal activity ex vivo, S. japonicum adult worms; type: cell-based; settings: for LD50 ex vivo S. japonicum adult: 48 h exposure
Description: as §1, §2

[5] = D0: diluted 1:100, activity determined immediately, list for plotting
[6] = D60: diluted 1:100, activity determined after 60 min, list for plotting

Cc1oc(-c2ccc3c(c2)OCO3)nc1CN[C@@H]1C[C@@H]2C[C@H]([C@H]1C)C2(C)C [Compound 1]
IC50 (BmTrxR): 37 ± 3.04 µM
inhibition at 10 µM (BmTrxR): 22.5%
inhibition at 25 µM (BmTrxR): 40.6%
inhibition at 50 µM (BmTrxR): 77.5%
viability at 5 µM [1]: 69%
viability at 15 µM [1]: 54.9%
viability at 30 µM [1]: 46.4%
LD50 ex vivo S. mansoni 21 days [1]: 26.3 ± 0.48 µM
% Inhibition (ID list), D0 (TGR [2]; [5]): -3.0% and -6.3% and -11.0%
% Inhibition (ID list), D60 (TGR [2]; [6]): -11.2% and -8.3% and -14.2%
Inhibitor (rate), 0 min (TGR [2]): 0.04476 and 0.04528 and 0.04727
% Activity, 0 min (TGR [2]): 96.9881% and 96.3404% and 109.043%
Inhibitor (rate), 60 min (TGR [2]): 0.04331 and 0.04649 and 0.04721
% Activity, 60 min (TGR [2]): 100.185% and 104.308% and 101.157%
Inhibitor (rate), -15 (TGR [2]): 0.02911 and 0.02756 and 0.02942
% Activity, -15 (TGR [2]): 84.4748% and 76.3012% and 82.9433%
% Activity (ID list) (TGR [2]; list for plotting): 84.5% and 76.3% and 82.9%
% Inhibition (ID list) (TGR [2]; list for plotting): 15.5% and 23.7% and 17.1%
rate, 0.5 hr (TGR [3]): 0.0552 and 0.05671 and 0.05782
avg % inhib, 0.5 hr (TGR [3]): -1.077%
% inhib, 0.5 hr (TGR [3]): 0.01811% and -0.5318% and -2.718%
rate, 1 hr (TGR [3]): 0.04988 and 0.05076 and 0.05122
avg % inhib, 1 hr (TGR [3]): 1.283%
% inhib, 1 hr (TGR [3]): 2.919% and -0.8544% and 1.783%
rate, 2 hr (TGR [3]): 0.046 and 0.04511 and 0.04817
avg % inhib, 2 hr (TGR [3]): 0.9089%
% inhib, 2 hr (TGR [3]): -0.9879% and 3.652% and 0.06224%
rate, 3 hr (TGR [3]): 0.03818 and 0.03843 and 0.03937
avg % inhib, 3 hr (TGR [3]): 4.332%
% inhib, 3 hr (TGR [3]): 4.359% and 4.498% and 4.139%
rate, 6 hr (TGR [3]): 0.02323 and 0.02106 and 0.02443
avg % inhib, 6 hr (TGR [3]): 12.8202%
% inhib, 6 hr (TGR [3]): 11.8406% and 18.1182% and 8.502%
rate, 24 hr (TGR [3]): 0.0142 and 0.01351 and 0.01414
avg % inhib, 24 hr (TGR [3]): 28.9728%
% inhib, 24 hr (TGR [3]): 24.2263% and 31.8365% and 30.8557%
Avg. Tm (TGR [4]; TGR + 100 µM compound): 73.67
Avg. Tm, + 500 µM NADPH (TGR [4]; TGR + 100 µM compound + 500 µM NADPH): 73.5
Tm, replicate 1-3, + 500 µM NADPH (TGR [4]; TGR + 100 µM compound + 500 µM NADPH, single replicates, in °C (unit assumed)): 73.5
Tm, replicate 1-3 (TGR [4]; TGR + 100 µM compound, single replicates): 73.5 (2×) and 74
effect on Tm of oxidized TGR (TGR [4]; without NADPH): Neither fast 6-9 nor slow TGR inhibitors 1, 3, 5 affected the Tm
LD50 ex vivo S. japonicum adult (S. japonicum adult worms): 19.6 ± 1.91 µM
viability at 5 µM (S. japonicum adult worms; Schistosoma japonicum, S. japonicum adult worms, 48 hr, Conc. 5 µM): 87.9%
viability at 15 µM (S. japonicum adult worms; Schistosoma japonicum, S. japonicum adult worms, 48 hr, Conc. 15 µM): 56.2%
viability at 30 µM (S. japonicum adult worms; Schistosoma japonicum, S. japonicum adult worms, 48 hr, Conc. 30 µM): 19.2%

Cc1oc(C2CCCCC2)nc1CN[C@@H]1C[C@@H]2C[C@H]([C@H]1C)C2(C)C [Compound 4]
BmTrxR % inhibition at 50 µM (BmTrxR; 50 µM, the highest concentration tested): n.i.
inhibition at 10 µM (BmTrxR): -0.192%
inhibition at 25 µM (BmTrxR): 0.661%
inhibition at 50 µM (BmTrxR): 0.575%
viability at 5 µM [1]: 65.7%
viability at 15 µM [1]: 45.3%
viability at 30 µM [1]: 27.7%
LD50 ex vivo S. mansoni 21 days [1]: 14.2 ± 2.13 µM
% Activity (ID list), D0 (TGR [2]; [5]): 102.5% and 102.9% and 117.3%
% Activity (ID list), D60 (TGR [2]; [6]): 106.3%
% Inhibition (ID list), D60 (TGR [2]; [6]): -15.2% and -8.7% and -6.3%
Inhibitor (rate), 0 min (TGR [2]): 0.04729 and 0.04838 and 0.05087
% Activity, 0 min (TGR [2]): 102.47% and 102.936% and 117.347%
Inhibitor (rate), 60 min (TGR [2]): 0.04596 and 0.04643 and 0.04838
% Activity, 60 min (TGR [2]): 106.315% and 104.173% and 103.664%
Inhibitor (rate), -15 (TGR [2]): 0.01214 and 0.0123 and 0.01219
% Activity, -15 (TGR [2]): 35.2293% and 34.0532% and 34.3671%
% Activity (ID list) (TGR [2]; list for plotting): 35.2% and 34.1% and 34.4%
% Inhibition (ID list) (TGR [2]; list for plotting): 64.8% and 65.9% and 65.6%
rate, 0.5 hr (TGR [3]): 0.06468 and 0.06599 and 0.06659
avg % inhib, 0.5 hr (TGR [3]): 18.4758%
% inhib, 0.5 hr (TGR [3]): 18.6722% and 19.1992% and 17.556%
rate, 1 hr (TGR [3]): 0.05061 and 0.05195 and 0.05284
avg % inhib, 1 hr (TGR [3]): 30.1534%
% inhib, 1 hr (TGR [3]): 31.2738% and 29.387% and 29.7994%
rate, 2 hr (TGR [3]): 0.03578 and 0.03672 and 0.03844
avg % inhib, 2 hr (TGR [3]): 45.3087%
% inhib, 2 hr (TGR [3]): 46.082% and 46.1584% and 43.6859%
rate, 3 hr (TGR [3]): 0.02569 and 0.02601 and 0.02662
avg % inhib, 3 hr (TGR [3]): 55.4006%
% inhib, 3 hr (TGR [3]): 55.9121% and 55.5156% and 54.774%
rate, 6 hr (TGR [3]): 0.01404 and 0.01371
avg % inhib, 6 hr (TGR [3]): 70.958%
% inhib, 6 hr (TGR [3]): 70.2542% and 71.6618%
rate, 24 hr (TGR [3]): 0.004212 and 0.004652 and 0.005413
avg % inhib, 24 hr (TGR [3]): 87.319%
% inhib, 24 hr (TGR [3]): 88.741% and 87.5248% and 85.6913%
LD50 ex vivo S. japonicum adult (S. japonicum adult worms): 27.1 ± 1.75 µM
